Tested on: NOMO1
Experiment: cell viability relative to DMSO control; higher = less cytotoxic
Details: 48 h
Procedure, shortened: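 NOMO1 or SEM (500 cells/well) or P12-Ichikawa (1000 cells/well) leukemia cells were adapted for at least four passages in each medium. They were seeded in 1536-well plates (5 μl) and pin-dosed with library compounds in DMSO over an 11-point threefold series, 47 μM to 0.79 nM. CellTiter-Glo One luminescence was read after 48 h at 37°C. Viability is the per-plate percentage relative to DMSO wells, with cell-free wells as background.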

[1] = HPLM + 10% dialyzed FBS, 0.000781 µM
[2] = HPLM + 10% dialyzed FBS, 0.00234 µM
[3] = HPLM + 10% dialyzed FBS, 0.00702 µM
[4] = HPLM + 10% dialyzed FBS, 0.0211 µM
[5] = HPLM + 10% dialyzed FBS, 0.0632 µM
[6] = HPLM + 10% dialyzed FBS, 0.19 µM
[7] = HPLM + 10% dialyzed FBS, 0.569 µM
[8] = HPLM + 10% dialyzed FBS, 1.71 µM
[9] = HPLM + 10% dialyzed FBS, 5.12 µM
[10] = HPLM + 10% dialyzed FBS, 15.4 µM
[11] = HPLM + 10% dialyzed FBS, 46.1 µM
[12] = RPMI 5 mM glucose + 10% FBS, 0.000781 µM
[13] = RPMI 5 mM glucose + 10% FBS, 0.00234 µM
[14] = RPMI 5 mM glucose + 10% FBS, 0.00702 µM
[15] = RPMI 5 mM glucose + 10% FBS, 0.0211 µM
[16] = RPMI 5 mM glucose + 10% FBS, 0.0632 µM
[17] = RPMI 5 mM glucose + 10% FBS, 0.19 µM
[18] = RPMI 5 mM glucose + 10% FBS, 0.569 µM
[19] = RPMI 5 mM glucose + 10% FBS, 1.71 µM
[20] = RPMI 5 mM glucose + 10% FBS, 5.12 µM
[21] = RPMI 5 mM glucose + 10% FBS, 15.4 µM
[22] = RPMI 5 mM glucose + 10% FBS, 46.1 µM
[23] = RPMI 5 mM glucose + 10% dialyzed FBS, 0.000781 µM
[24] = RPMI 5 mM glucose + 10% dialyzed FBS, 0.00234 µM
[25] = RPMI 5 mM glucose + 10% dialyzed FBS, 0.00702 µM
[26] = RPMI 5 mM glucose + 10% dialyzed FBS, 0.0211 µM
[27] = RPMI 5 mM glucose + 10% dialyzed FBS, 0.0632 µM
[28] = RPMI 5 mM glucose + 10% dialyzed FBS, 0.19 µM
[29] = RPMI 5 mM glucose + 10% dialyzed FBS, 0.569 µM
[30] = RPMI 5 mM glucose + 10% dialyzed FBS, 1.71 µM
[31] = RPMI 5 mM glucose + 10% dialyzed FBS, 5.12 µM
[32] = RPMI 5 mM glucose + 10% dialyzed FBS, 15.4 µM
[33] = RPMI 5 mM glucose + 10% dialyzed FBS, 46.1 µM

Row | Compound | cell viability [1] | cell viability [2] | cell viability [3] | cell viability [4] | cell viability [5] | cell viability [6] | cell viability [7] | cell viability [8] | cell viability [9] | cell viability [10] | cell viability [11] | cell viability [12] | cell viability [13] | cell viability [14] | cell viability [15] | cell viability [16] | cell viability [17] | cell viability [18] | cell viability [19] | cell viability [20] | cell viability [21] | cell viability [22] | cell viability [23] | cell viability [24] | cell viability [25] | cell viability [26] | cell viability [27] | cell viability [28] | cell viability [29] | cell viability [30] | cell viability [31] | cell viability [32] | cell viability [33]
1 | CCCC1=N[N](C)C2=C1\N=C(/NC2=O)C3=CC(=CC=C3OCC)[S+]([O-])(=O)N4CCN(C)CC4 | 85.1% | 83.9% | 81.6% | 83.7% | 86.1% | 87.9% | 98.8% | 82.4% | 81.1% | 83.6% | 52.8% | 79.5% | 92.9% | 77.4% | 81.6% | 76% | 90.2% | 72% | 83.7% | 77.3% | 79.3% | 76.9% | 94.4% | 88% | 91.9% | 84.5% | 72.3% | 96% | 82.3% | 77.1% | 77.4% | 85.2% | 80.8%
2 | CN1C2=CC(=O)/C(=N/NC(N)=O)C=C2CC1S(=O)(=O)[O-].[Na+] (configuration not stated) | 87% | 105% | 105% | 104% | 111% | 135% | 116% | 122% | 125% | 128% | 92.5% | 108% | 109% | 111% | 115% | 117% | 128% | 120% | 117% | 122% | 116% | 111% | 105% | 112% | 114% | 111% | 118% | 126% | 124% | 123% | 128% | 119% | 103%
3 | O=C(O)CSCC(=O)NC1CCSC1=O (configuration not stated) | 122% | 112% | 105% | 95.1% | 118% | 119% | 107% | 117% | 106% | 112% | 122% | 105% | 105% | 111% | 99.8% | 110% | 116% | 114% | 102% | 108% | 105% | 104% | 104% | 95.7% | 114% | 104% | 109% | 113% | 108% | 118% | 105% | 100% | 102%
4 | O=C1CCC[C@@H]2[C@H]3CCC[N+]4([O-])CCC[C@@H](CN12)[C@@H]34 (some centres not stated) | 75.3% | 92.3% | 98.9% | 87.6% | 105% | 98.2% | 88.4% | 94.5% | 56.9% | 10.1% | 5.34% | 83.5% | 86.8% | 86.1% | 92.7% | 98.7% | 92% | 107% | 94.1% | 64.3% | 22% | 6.85% | 79.1% | 88.7% | 93.2% | 97.4% | 97.8% | 98.7% | 94.4% | 88.9% | 51.3% | 29.7% | 5.35%
5 | COc1cc(NC(=O)c2ccc(-c3ccc(Cl)cc3)o2)cc(OC)c1 | 95.5% | 103% | 112% | 112% | 114% | 118% | 112% | 104% | 61.8% | 52.7% | 39.6% | 91.4% | 106% | 104% | 100% | 101% | 110% | 108% | 92.1% | 58.7% | 74.4% | 72.3% | 97.5% | 111% | 108% | 108% | 111% | 115% | 109% | 94.9% | 66.8% | 50.7% | 62.8%
6 | CN(C)CC[C@H](CSc1ccccc1)Nc1ccc([S+](=O)([O-])NC(=O)c2ccc(N3CCN(Cc4ccccc4-c4ccc(Cl)cc4)CC3)cc2)cc1[N+](=O)[O-] | 140% | 119% | 125% | 108% | 127% | 92.5% | 96.7% | 102% | 52.7% | 50.2% | 55% | 108% | 118% | 109% | 107% | 99.5% | 98.8% | 89.5% | 80.7% | 50.8% | 49.6% | 60.6% | 115% | 123% | 102% | 114% | 98.3% | 85.3% | 62.7% | 46.1% | 33.9% | 30.6% | 42.5%
7 | CCN1\C=C(C(O)=O)/C(=O)C2=C1C=C(N3CCN(C)CC3)C(=C2)F |  |  |  |  |  |  |  |  |  |  |  | 97.7% | 104% | 106% | 108% | 106% | 113% | 107% | 104% | 82% | 71% | 51.9% | 123% | 112% | 112% | 154% | 157% | 77% | 71.9% | 47.7% | 57.6% | 58.5% | 32.6%
8 | O=C(NCCO[N+](=O)[O-])c1cccnc1 | 112% | 124% | 123% | 133% | 137% | 126% | 136% | 135% | 129% | 123% | 62.3% |  |  |  |  |  |  |  |  |  |  |  | 118% | 120% | 123% | 135% | 127% | 119% | 133% | 124% | 125% | 125% | 92.1%
